We go through one substance from patent US10954268B2, “Method of treating melanocortin-4 receptor-associated disorders in heterozygous carriers” (RHYTHM PHARMACEUTICALS, INC., priority 2011, dated 2021).

In this experiment the test system is Diet induced obesity (DIO) littermate C57B1/6J mice. The experiment is described as follows: Treatment of obese MC4R+/− heterozygotic mice by Alzet pump infusion, body weight measured. Format: in vivo. The note with it: Alzet pump infusion 1200 nmol/kg/day for 8 days, FIG. 3. The procedure: Body weight was measured.
The weight change due to the exposure to the compound of SEQ ID NO: 140 in mice that are either wild type for the MC4R gene, or express only a single MC4R allele, or mice without any MC4R protein expression were compared.

Bridges are numbered along the chain shown (N, C = ends). [ ]: non-standard residue; d: D form.

Take “Ac-Arg-c(Cys-D-Ala-His-D-Phe-Arg-Trp-Cys)-NH2 (Ac-RC[dA]H[dF]RWC-NH2; disulfide 2-8 (inferred)) [SEQ ID NO: 140]”: the “weight loss over the treatment period” value (DIO homozygous MC4R knockout mice (−/−), no MC4R expression) was “did not show significant weight loss”. The “body weight lost over the treatment period” value (DIO mice heterozygous for the MC4R gene (+/−)) was “about 1 gram”.
